According to ChEMBL document CHEMBL3639022, “Azolopyridin-3-one derivatives as inhibitors of lipases and phospholipases” (2015):

Molecular target: T1, Endothelial lipase (Homo sapiens, UniProt Q9Y5X9)
T1 sequence (Q9Y5X9 whole entry): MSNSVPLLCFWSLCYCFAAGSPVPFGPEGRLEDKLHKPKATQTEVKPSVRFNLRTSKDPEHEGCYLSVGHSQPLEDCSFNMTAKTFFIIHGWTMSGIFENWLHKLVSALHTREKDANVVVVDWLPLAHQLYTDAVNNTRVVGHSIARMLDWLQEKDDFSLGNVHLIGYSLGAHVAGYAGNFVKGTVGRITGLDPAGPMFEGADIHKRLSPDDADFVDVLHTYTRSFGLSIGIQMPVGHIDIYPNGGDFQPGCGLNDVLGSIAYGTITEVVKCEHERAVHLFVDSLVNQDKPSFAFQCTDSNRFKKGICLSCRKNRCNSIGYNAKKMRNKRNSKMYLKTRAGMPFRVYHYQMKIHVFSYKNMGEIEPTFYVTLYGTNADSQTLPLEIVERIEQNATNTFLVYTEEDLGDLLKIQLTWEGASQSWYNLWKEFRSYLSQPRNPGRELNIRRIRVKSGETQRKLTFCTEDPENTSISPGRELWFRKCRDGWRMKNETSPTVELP
Experiment: Enzyme Assay: For characterization of the enzymatic activity of endothelial lipase and the effect of inhibitors, the phospholipase-specific substrate 1,2-bis(4,4-difluoro-5,7-dimethyl-4-bora-3a,4a-diaza-s-indacene-3-undecanoyl)-sn-glycero-3-phosphocholine (manufacturer: Molecular Probes) was used. Hydrolysis of the A1 ester bond of this phospholipid by the enzyme releases the fluorescent dye Bodipy, which can be detected by measuring the fluorescence after separation by thin-layer chromatography on an HPTLC plate (silica gel 60, Merck) or directly in the reaction vessel. To prepare the substrate solution, 100 ug of 1,2-bis(4,4-difluoro-5,7-dimethyl-4-bora-3a,4a-diaza-s-indacene-3-undecanoyl)-sn-glycero-3-phosphocholine (manufacturer: Molecular Probes) were dissolved in 100 ul of DMSO and taken up in 2.4 mg of tripalmitin (Sigma) in 393 ul of chloroform which contained 20 mg/ml DOPcholine (1,2-dioleoyl-sn-glycero-3-phosphocholine).

O=C(NCc1ccccc1OC(F)F)n1sc2ncccc2c1=O
IC50: 138 nM
